Measured values taken from patent publication US20210379077A1, “TOPOISOMERASE II CATALYTIC INHIBITOR COMPOUND THERAPEUTICS FOR CANCER TREATMENT, METHODS AND USES” (The University of British Columbia, priority 2018, published 2021).
Entries after “also recorded” stand apart in the source; their conditions may differ.

Legend:
Cancer Cell = test: Cancer cell growth inhibition; assay type: cell-based; design: key: Y is an indication that activity was found
Protocol: BrDU incorporation and cell proliferation assays—Cell proliferation rates were measured by using the CellTitre™ 96 AqueousOne™ kit (Promega™) and bromodeoxyuridine (BrdU) assay kit (Millipore™) according to the manufacturer's protocol, with minor modifications as we have previously described by Li H. et al.^19

Hela cells = test: LDH cytotoxicity assay; assay type: cell-based; conditions: 0-20 μM, 48 hours, listed as Top60
Protocol: Cytotoxicity was evaluated by measuring LDH levels from cell culture media; (b) K562 cells were treated with either vehicle or 10-20 μM of Top60, Etoposide and ICRF187 for 4 hours. Whole cell lyses were collected to measure γH2AX levels with vinculin as the loading control; (c) K562 cells were treated with 0, 1, 5, 10, 15 and 20 μM of Top60, 20 μM Etoposide or 20 uM ICRF187 for 48 hours. Cell proliferation rates were determined by MTS assays; and (d) K562 cells were treated with 20 μM of Top60, Etoposide or ICRF187 for 0, 24, 48 and 72 hours. Cell proliferation rates were measured by MTS assays. All results were collected from three independent experiments.
Cytotoxicity assay—Cytotoxicity assays were performed using the commercial kit from Pierce (CAT #8078). Briefly, culture media was collected and used to measure lactate dehydrogenase (LDH) levels by a colorimetric method following manufacture's protocol.

Topo IIα = Topo IIα (Homo sapiens, UniProt P11388); test: DNA relaxation assay with supercoiled pHOT plasmid; assay type: biochemical; design: purchased TopoGENE (TopoGEN) TG2000H; conditions: 0-50 μM, 37° C., 1 hour
Protocol: DNA samples were separated by electrophoresis on 0.8% agarose gels and visualized by ethium bromide staining. The positions of K-DNA and decatenated (D) DNA products are marked by arrows. Experiments were repeated five times and the densitometry of the D bands were used to establish an inhibition curve to calculate IC50. (b) Supercoiled pHOT™ plasmid was incubated with human TOP2a in the presence of 50 μM Etopside, 50 uM ICRF193 or 0-50 μM of compound #60 (Top60) compound at 37° C. for 1 hour. DNA products were separated by electrophoresis on 1% agarose gels and visualized by ethium bromide staining. The positions of supercoiled (SC), nicked (N), and relaxed (R) DNA bands are marked by arrows. Experiments were repeated five times and the densitometiy of the SC bands were used to establish an inhibition curve to calculate IC50. (c) Supercoiled pHOT™ plasmid was incubated with Topoisomerase I prior to addition of either mAMSA or compound #60 (Top60) at concentrations of 0, 5, 10, 25 and 50 μM at 37° C. for 30 minutes. Reactions were stopped by 1% SDS at 37° C. for 15 minutes. DNA products were separated by electrophoresis on a 1% agarose gels and visualized by ethium bromide staining. […]

Chain of Topo IIα (P11388 whole entry): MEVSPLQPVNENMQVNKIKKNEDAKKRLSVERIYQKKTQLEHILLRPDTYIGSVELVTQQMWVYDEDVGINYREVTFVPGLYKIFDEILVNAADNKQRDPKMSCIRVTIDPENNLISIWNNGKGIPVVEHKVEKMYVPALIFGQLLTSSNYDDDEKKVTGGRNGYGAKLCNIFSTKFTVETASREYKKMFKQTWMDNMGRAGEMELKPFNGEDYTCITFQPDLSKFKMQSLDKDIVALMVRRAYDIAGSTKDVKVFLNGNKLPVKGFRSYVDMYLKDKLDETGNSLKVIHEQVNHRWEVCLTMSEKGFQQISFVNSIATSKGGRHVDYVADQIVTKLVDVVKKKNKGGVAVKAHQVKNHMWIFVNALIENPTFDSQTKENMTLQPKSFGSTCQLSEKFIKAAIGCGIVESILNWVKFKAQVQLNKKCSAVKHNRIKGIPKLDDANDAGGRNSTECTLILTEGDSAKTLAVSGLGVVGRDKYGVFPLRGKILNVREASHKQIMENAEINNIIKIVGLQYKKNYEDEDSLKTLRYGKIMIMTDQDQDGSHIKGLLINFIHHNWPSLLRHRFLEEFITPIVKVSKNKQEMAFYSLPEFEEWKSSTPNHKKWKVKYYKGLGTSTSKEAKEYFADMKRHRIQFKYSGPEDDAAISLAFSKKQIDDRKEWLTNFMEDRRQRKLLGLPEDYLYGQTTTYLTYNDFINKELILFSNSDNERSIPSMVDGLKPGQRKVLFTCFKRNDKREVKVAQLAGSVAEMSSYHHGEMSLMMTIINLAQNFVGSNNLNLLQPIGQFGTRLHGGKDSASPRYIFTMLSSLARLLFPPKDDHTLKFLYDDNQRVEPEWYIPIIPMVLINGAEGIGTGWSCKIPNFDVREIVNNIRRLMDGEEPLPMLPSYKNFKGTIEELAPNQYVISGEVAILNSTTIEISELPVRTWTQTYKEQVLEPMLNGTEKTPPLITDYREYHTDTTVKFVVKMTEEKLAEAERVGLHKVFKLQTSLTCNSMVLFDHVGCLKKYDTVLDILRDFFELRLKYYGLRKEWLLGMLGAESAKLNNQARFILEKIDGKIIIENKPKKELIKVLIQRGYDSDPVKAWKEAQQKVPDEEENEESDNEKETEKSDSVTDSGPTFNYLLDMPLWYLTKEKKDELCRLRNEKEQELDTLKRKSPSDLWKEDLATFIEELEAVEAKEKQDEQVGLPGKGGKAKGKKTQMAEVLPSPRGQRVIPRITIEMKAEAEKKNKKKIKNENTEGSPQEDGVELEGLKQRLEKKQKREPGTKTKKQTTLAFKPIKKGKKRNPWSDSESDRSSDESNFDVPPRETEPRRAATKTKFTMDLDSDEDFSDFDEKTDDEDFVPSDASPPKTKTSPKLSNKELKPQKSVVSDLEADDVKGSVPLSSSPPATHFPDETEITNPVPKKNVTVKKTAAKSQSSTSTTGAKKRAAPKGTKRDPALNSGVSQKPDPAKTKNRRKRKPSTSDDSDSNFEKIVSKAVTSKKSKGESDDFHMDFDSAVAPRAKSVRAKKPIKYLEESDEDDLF

IC50 in the relaxation assay (Topo IIα): nanomolar
SMILES: O=C(Nc1ccc(Nc2ccccc2)cc1)c1ccc[nH]c1=S [Compound 60]
Cancer Cell Growth Inhib. (Cancer Cell): Y
cytotoxicity (LDH levels in culture media) (Hela cells): Low cytotoxic affect; also recorded: low cytotoxicity
